The results in this text go back to patent US20080194638A1, “BIOAVAILABLE FORMULATIONS OF HETEROCYCLIC COMPOUNDS” (Forest Laboratories Holdings Limited, priority 2007, published 2008).

Counter-ions that a name gives are not always drawn.

The series in a line: Solubility of crystalline forms. It is filed as physicochemical. The text has this: wherein R^1-R^4, P, X, Y, m, n and Ar are as defined therein. One such compound is N-(3,5-dichloropyrid-4-yl)-4-difluoromethoxy-8-methanesulfonamido-dibenzo[b,d]furan-1-carboxamide, the International nonproprietary name for which is oglemilast. The pharmacology and safety profiles for oglemilast have been described in, for example, Eur. Respir. J. (2004) 24 (Suppl 48): Abst 1391. Both US 2005/0027129 and International Publication No. WO 2006/040652 disclose methods for preparing oglemilast and pharmaceutically acceptable salts thereof, such as the sodium salt (see, e.g., Examples 30 and 31 of US publication No. 2005/0027129) and generically disclose formulations of oglemilast and the corresponding sodium salt. In these formulations, the active ingredient is present substantially in a crystalline form. […] In an attempt to increase the bioavailability of formulations containing, e.g., oglemilast, salt forms of the active ingredient have typically been used.

With `CS(=O)(=O)Nc1ccc2oc3c(OC(F)F)ccc(C(=O)Nc4c(Cl)cncc4Cl)c3c2c1` [crystalline oglemilast, N-(3,5-dichloropyrid-4-yl)-4-difluoromethoxy-8-methanesulfonamido-dibenzo[b,d]furan-1-carboxamide], the solubility entry is on record as “approximately 0.2 μg/mL”.
Turning to `CS(=O)(=O)Nc1ccc2oc3c(OC(F)F)ccc(C(=O)Nc4c(Cl)cncc4Cl)c3c2c1` [crystalline sodium salt of oglemilast], the solubility entry is “approximately 140 μg/mL”.
